{"source": "patent US8138340B2", "about": "“Bicyclononene derivatives” (Actelion Pharmaceuticals Ltd., priority 2004, dated 2012)"}
{"biological_target": "T1, recombinant human renin (Homo sapiens, UniProt P00797)", "T1 sequence (P00797 67-406)": "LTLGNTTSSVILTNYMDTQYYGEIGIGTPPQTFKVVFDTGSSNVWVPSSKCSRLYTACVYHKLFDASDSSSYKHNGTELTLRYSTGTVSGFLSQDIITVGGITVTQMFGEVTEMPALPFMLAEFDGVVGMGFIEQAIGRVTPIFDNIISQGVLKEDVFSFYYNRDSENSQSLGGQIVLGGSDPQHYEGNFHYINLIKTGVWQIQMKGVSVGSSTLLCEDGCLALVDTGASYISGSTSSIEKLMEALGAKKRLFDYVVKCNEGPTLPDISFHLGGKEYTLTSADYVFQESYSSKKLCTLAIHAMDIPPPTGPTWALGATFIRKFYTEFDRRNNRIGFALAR", "assay": "Primary renin inhibition assay: IC50 in buffer, 384 well MTP (AngI quantified by EIA)", "assay_type": "biochemical", "conditions": "human tetradecapeptide substrate, assay buffer pH 7.4, 37° C. for 3 h", "experimental": "1. Enzyme Immuno Assay (EIA) to Estimate AngI Accumulation and Renin Inhibition\n1.1 Preparation of AngI-BSA Conjugate\n1.3 mg (1 μmol) of AngI [1-10 (Bachem, H-1680)] and 17 mg (0.26 μmol) of BSA (Fluka, 05475) were dissolved in 4 mL of 0.1M phosphate buffer, pH 7.4, after which 2 mL of a 1:100 dilution of glutaraldehyde in H2O (Sigma G-5882) was added dropwise. The mixture was incubated overnight at 4° C., then dialyzed against 2 liters of 0.9% NaCl, twice for 4 h at rt, followed by dialysis against 2 liters of PBS 1× overnight at rt. The solution was then filtered with a Syringe filter, 0.45 μm (Nalgene, Cat. No. 194-2545). The conjugate can be stored in polypropylene tubes in 0.05% sodium azide at 4° C. for at least 12 months.\n1.2 Preparation of BSA-AngI Coated MTP\nMicrotiter plates (MPT384, MaxiSorp™, Nunc) were incubated overnight at 4° C. with 80 μl of AngI (1-10)/BSA conjugate, diluted 1:100'000 in PBS 1× in a teflon beaker (exact dilution dependent on batch of conjugate), emptied, filled with 90 μl of blocking solution [0.5% BSA (Sigma A-2153) in PBS 1×, 0.02% NaN3], and incubated for at least 2 h at rt, or overnight at 4° C. 96 well MTP (MaxiSorp™, Nunc) were coated with […] conjugate and blocked with 250 μl blocking solution as above, except that the blocking solution contained 3% BSA. The plates can be stored in blocking solution at 4° C. for 1 month.\n1.3 AngI-EIA in 384 well MTP\nThe AngI (1-10)/BSA coated MTP were washed 3 times with wash buffer (PBS 1×, 0.01% Tween 20) and filled with 75 μl of primary antibody solution (anti-AngI antiserum, pre-diluted 1:10 in horse serum), diluted to a final concentration of 1:100'000 in assay buffer (PBS 1×, 1 mM EDTA, 0.1% BSA, pH 7.4). 5 μl of the renin reaction (or standards in assay buffer) (see below) were added to the primary antibody solution and the plates were incubated overnight at 4° C. After the incubation the plates were washed 3 times with wash buffer and incubated with secondary antibody [anti-rabbit IgG, linked to horseradish peroxidase (Amersham Bioscience, NA 934V), diluted 1:2'000 in wash buffer] for 2 h at rt. The plates were washed 3 times with wash buffer and then incubated for 1 h at rt with substrate solution [1.89 mM ABTS (2.2′-azino-di-(3-ethyl-benzthiazolinsulfonate)] (Roche Diagnostics, 102 946) and 2.36 mM H2O2 [30%, (Fluka, 95300] in substrate buffer (0.1M sodium acetate, 0.05M sodium dihydrogen phosphate, pH 4.2). The OD of the plate was read at 405 nm in a microplate reader (FLUOStar Optima from BMG). The production of AngI during the renin reaction was quantified by comparing the OD of the sample with the OD of a standard curve of AngI(1-10), measured in parallel.\n2. Primary Renin Inhibition Assay: IC50 in Buffer, 384 well MTP\nThe renin assay was adapted from an assay described before (Fischli W. et al., Hypertension, 1991, 18:22-31) and consists of two steps: in the first step, recombinant human renin is incubated with its substrate (commercial human tetradecapeptide renin substrate) to create the product Angiotensin I (AngI). In the second step, the accumulated AngI is measured by an immunological assay (enzyme immuno assay, EIA). The detailed description of this assay is found below. The EIA is very sensitive and well suited for renin activity measurements in buffer or in plasma. Due to the low concentration of renin used in this assay (2 fmol per assay tube or 10 pM) it is possible to measure inhibitor affinities in this primary assay down to low pM concentration.\nRecombinant human renin (3 pg/μl) in assay buffer (PBS 1×, 1 mM EDTA, 0.1% BSA, pH 7.4), human tetradecapeptide (1-14) substrate (Bachem, M-1120) [5 μM in 10 mM HCl], hydroxyquinoline sulfate (Fluka, 55100) [30 mM in H2O] and assay buffer were premixed at 4° C. at a ratio of 100:30:10:145. 47.5 μl per well of this premix was transferred into polypropylene plates (MTP384, Nunc). […]", "units": {"IC50": "nM"}}
{"molecule": "Cc1ccc(F)c(OCCOc2ncc(C3=C(C(=O)N(Cc4cccc(Cl)c4Cl)C4CC4)[C@H]4CNC[C@@H](C3)N4)s2)c1Cl", "note": "(racemic) [Example 7, (rac.)-(1R*, 5S*)-7-{2-[2-(2-Chloro-6-fluoro-3-methylphenoxy)ethoxy]thiazol-5-yl}-3,9-diazabicyclo[3.3.1]non-6-ene-6-carboxylic acid cyclopropyl-(2,3-dichlorobenzyl)-amide]", "IC50": 2.9}
{"molecule": "Cc1ccc(F)c(OCCCc2coc(C3=C(C(=O)N(Cc4cccc(Cl)c4Cl)C4CC4)[C@H]4CNC[C@@H](C3)N4)n2)c1Cl", "note": "(racemic) [Example 12, (rac.)-(1R*, 5S*)-7-{4-[3-(2-Chloro-6-fluoro-3-methylphenoxy)propyl]oxazol-2-yl}-3,9-diazabicyclo[3.3.1]non-6-ene-6-carboxylic acid cyclopropyl-(2,3-dichlorobenzyl)-amide]", "IC50": 46}
{"molecule": "COc1cccc(CN(C(=O)C2=C(c3cnc(CCCOc4c(Cl)cc(C)cc4Cl)s3)C[C@@H]3CNC[C@H]2N3)C2CC2)c1C", "note": "(racemic) [Example 21, (rac.)-(1R*, 5S*)-7-{2-[3-(2,6-Dichloro-4-methylphenoxy)propyl]thiazol-5-yl}-3,9-diazabicyclo[3.3.1]non-6-ene-6-carboxylic acid cyclopropyl-(3-methoxy-2-methylbenzyl)amide]", "IC50": 4.4}
{"molecule": "(rac.)-(1R*, 5S*)-7-{5-[2-(4-Chloro-3,5-dimethylphenoxy)ethyl]-4-methylthiazol-2-yl}-3,9-diazabicyclo[3.3.1]non-6-ene-6-carboxylic acid cyclopropyl-(3-methoxy-2-methylbenzyl)amide [Example 1]", "IC50": 57}
{"molecule": "Cc1cc(Cl)c(OCCOc2ncc(C3=C(C(=O)N(Cc4cccc(F)c4F)C4CC4)[C@H]4CNC[C@@H](C3)N4)s2)c(Cl)c1", "note": "(racemic) [Example 45, (rac.)-(1R*, 5S*)-7-{2-[2-(2,6-Dichloro-4-methylphenoxy)ethoxy]thiazol-5-yl}-3,9-diazabicyclo[3.3.1]non-6-ene-6-carboxylic acid cyclopropyl-(2,3-difluorobenzyl)amide]", "IC50": 15}
{"molecule": "COc1cccc(CN(C(=O)C2=C(c3cnc(OCCOc4c(Cl)cc(C)cc4Cl)s3)C[C@@H]3CNC[C@H]2N3)C2CC2)c1C", "note": "(racemic) [Example 35, (rac.)-(1R*, 5S*)-7-{2-[2-(2,6-Dichloro-4-methylphenoxy)ethoxy]thiazol-5-yl}-3,9-diazabicyclo[3.3.1]non-6-ene-6-carboxylic acid cyclopropyl-(3-methoxy-2-methylbenzyl)amide]", "IC50": 1.3}
{"molecule": "O=C(C1=C(c2nc(CCCOc3cc(C(F)(F)F)ccc3Cl)cs2)C[C@@H]2CNC[C@H]1N2)N(Cc1cccc(Cl)c1Cl)C1CC1", "note": "(racemic) [Example 2, (rac.)-(1R*, 5S*)-7-{4-[3-(2-Chloro-5-trifluoromethylphenoxy)propyl]thiazol-2-yl}-3,9-diazabicyclo[3.3.1]non-6-ene-6-carboxylic acid cyclopropyl-(2,3-dichlorobenzyl)amide]", "IC50": 94}
{"molecule": "Cc1cc(Cl)c(OCCOc2ncc(C3=C(C(=O)N(Cc4cccc(Cl)c4C)C4CC4)[C@H]4CNC[C@@H](C3)N4)s2)c(Cl)c1", "note": "(racemic) [Example 52, (rac.)-(1R*, 5S*)-7-{2-[2-(2,6-Dichloro-4-methylphenoxy)ethoxy]thiazol-5-yl}-3,9-diazabicyclo[3.3.1]non-6-ene-6-carboxylic acid (3-chloro-2-methylbenzyl)cyclopropyl-amide]", "IC50": 1.1}
{"molecule": "(rac.)-(1R*, 5S*)-7-{4-[3-(3-Chloro-2,6-difluorophenoxy)propyl]thiazol-2-yl}-3,9-diazabicyclo[3.3.1]non-6-ene-6-carboxylic acid cyclopropyl-(2,3-dichloro-benzyl)amide [Example 3]", "IC50": 16}
